Data published in patent US20030007938A1, “Methods for treating fingernails and toenails” (priority 2001, published 2003).
Values joined by “and” are separate entries in the source; they are usually repeats but may differ in a detail not shown here. Identical values can stand only once.

System: index fingernail and cuticle
Assay: Fingernail growth of the index finger in human volunteers, daily topical treatment for four weeks
Format: in vivo
Description: This Example describes the use of a cream prepared with the complexes of peptone with copper (II) to improve nail growth in humans. The copper soy peptone complex (0.3% copper ion and 4% dry weight of peptone) was mixed into an application cream containing 55% (by weight) aloe vera gel, 12% squalane, 12% glycerol stearate, 5% PEG-100, 4% cetyl alcohol and 0.3% retinol. The placebo-treated control nails were treated with a similar cream that contained no copper-peptide complex. For testing experiments, the fingernail growth rates of the index finger were used as a measurement. In the first set of experiments, the copper-peptide complex was applied to the index fingernail and cuticle on the right hand while the left hand nail was untreated and used as a control. In the second set of experiments with different human volunteers, the copper-peptide cream was applied to the index fingernail and cuticle on the left hand while the right hand nail was treated with the placebo cream and used as a control. Nails were treated daily for four weeks. Nail length was measured from the end of the nail bed to the tip of the nail at its center by pushing a small plastic ruler under the nail and firmly against the nail bed. […] The effect of nail growth stimulation was approximately similar if either the right hand treated group or the left hand treated group was used. For testing experiments, the fingernail growth rates of the index finger were used as a measurement. In the experiments, the copper-peptide complex was applied to the index fingernail and cuticle on the right hand while the left hand nail was treated with the placebo cream and used as a control. Nails were treated daily for four weeks. Nail length was measured from the end of the nail bed to the tip of the nail at its center by pushing a small plastic ruler under the nail and firmly against the nail bed. […]

GHK-Copper (II) [GHK-Copper complex]
Finger Nail Growth, Right Hand Treated (GHK-Copper (II) cream for four weeks, one value per person, left hand placebo control): 3.1 millimeters in four weeks and 3.5 millimeters in four weeks and 3.7 millimeters in four weeks and 3.4 millimeters in four weeks and 2.9 millimeters in four weeks
Visual inspection of treated nails versus control hand (four weeks, readily apparent in all cases): appeared to be longer
Nail growth of treated nails compared with control nails (summary in words of the table, four weeks): better nail growth
